The record followed here is patent US7820661B2, “Substituted gamma lactams as therapeutics agents” (Allergan, Inc., priority 2008, dated 2010).

In the assay the test system is lashes and adjacent hairs (hair growth). The assay is described as follows: Observation of lashes and adjacent hairs in glaucoma patients treated with bimatoprost in only one eye. The class given is in vivo. From the text:
In the course of treating patients having glaucoma, treatment may only be appropriate in one eye. […] The lash appearance on the lids of the treated eyes would have appeared quite attractive if it represented a bilateral phenomenon. As a result of its asymmetric nature, the long lashes on one side could be construed as disturbing from a cosmetic standpoint. A systemic examination was preformed as a result of the asymmetric phenomenon. It soon became apparent that this altered appearance was not an isolated finding.
The changes in the lashes were apparent on gross inspection in several patients once attention was focused on the issue. In those with light colored hair and lashes, the differences were only seen easily with the aid of the high magnification and lighting capabilities of the slit lamp biomicroscope. In the course of glaucoma follow-up examination, attention is generally immediately focused on the eye itself. As a result of the high power magnification needed only one eye is seen at a time and the eye is seen at a high enough power that the lashes are not in focus. At these higher powers, any lash asymmetry between the two eyes is not likely to be noticed except by careful systematic comparison of the lashes and adjacent hairs of the eyelids of the two eyes. […]

`CCNC(=O)CCC/C=C\C[C@@H]1[C@@H](/C=C/[C@@H](O)CCc2ccccc2)[C@H](O)C[C@@H]1O` [bimatoprost]: the “differences in the lashes and adjacent hairs of the treated side” value (all patients taking the drug on a unilateral basis for longer than 6 months) is given as “Definite differences could be identified to varying degrees”. In addition, the “appearance of lashes in the treated eye compared with the non-treated eye” value (glaucoma patient treated in one eye, treated vs non-treated eye) is “longer, thicker, and fuller”.
